Experimental data: patent publication EP0018019A1, “Antimicrobial water-soluble compound which contains a rare earth metal cation, its application in oral compositions and method for controlling microorganisms therewith” (priority 1979, dated 1980)
Read-outs that look alike come from different tables or passages of the source.

Columns and labels:
[1] = Stain test on pellicle-coated plastic artificial molars (coffee/tea); settings: for Stain Grade: 0-8 scale (0 no stain, 8 continuous dark brown stain); for promotion of stains: demonstrated by the stain test
Method: Plastic artificial molars were mounted in the caps of disposable plastic vials using dental cement. A thin, organic pellicle was developed on the teeth by exposure for about 17 hours to pooled human saliva which has been centrifuged for 2 minutes at 500X gravity to remove food and similar debris. The coated teeth were serially exposed for 5 minutes to a solution of the test material, a distilled water rinse, for 5 minutes to a solution of instant coffee and tea (20 grams of commercial instant coffee and 2 grams of commercial instant tea in 1 liter of distilled water), a distilled water rinse, the test solution for 5 minutes, a distilled water rinse, the coffee/tea solution for 5 minutes, and a final distilled water rinse. The teeth were then graded for degree of staining on a 0-8 scale (where 0 was no stain and 8 was continuous dark brown stain) by comparison with a photographic standard.

S. aureus = test: Minimum Bactericidal Concentration test; format: cell-based; settings: 10-minute contact at 37°C
Method: (§1) The data are from standard tests for measuring Minimum Bactericidal Concentrations (using a 10-minute contact with the test agent at 37°C; representing at least 3 log unit reduction in viable cell count).

E. coli [2] = test: Minimum Bactericidal Concentration test; format: cell-based; settings: 10-minute contact at 37°C
Method: as §1

E. coli [3] = format: cell-based; settings: for Log Survivors/ml: approximately 10^7 E. coli/ml, 10 min. at 37°C; for effectiveness as component of the antimicrobial compositions: other polyvalent metals in place of the rare earth, tested in the foregoing manner
Staphylococcus = settings: cited from earlier work
molds = settings: cited from earlier work
[4] = Water solubility / precipitation from solution; format: physicochemical; settings: in combination with a rare earth
Text: Moreover, the compounds herein or their rare earth metal components precipitate from solution at pH's above about 8. See: Moeller and Kremers, Chem. Rev. 37:114 (1945). Moreover, highly acid (below about pH 4) solutions of the surfactants herein have antimicrobial properties in their own right. Of course, compositions intended for oral use should have a pH above about 4 to avoid damage to dental enamel. With certain species of microorganisms, especially with Pityrosporum ovale which is the causative microorganism for dandruff, the compositions herein are optimally active in the pH range of 4.0-4.5.
The present invention specifically encompasses the more water-soluble, antimicrobially-active rare earth/alkyl benzene sulfonate compositions.

[5] = Antimicrobial activity of rare earth/surfactant combinations; format: cell-based; settings: in combination with a rare earth
Method: as §1

E. coli ATCC 11775 = test: Minimum Bactericidal Concentration of LaLAS; format: cell-based; settings: Gram-negative
Method: as §1

[6] = test system: Ps. aeruginosa ATCC 15442; test: Minimum Bactericidal Concentration of LaLAS; format: cell-based; settings: Gram-negative
Method: as §1

[7] = test system: Kleb. pneumoniae ATCC 4352; test: Minimum Bactericidal Concentration of LaLAS; format: cell-based; settings: Gram-negative
Method: as §1

Strep. faecalis = test: Minimum Bactericidal Concentration of LaLAS; format: cell-based; settings: Gram-positive
Method: as §1

Proteus vulgaris = test: Minimum Bactericidal Concentration of LaLAS; format: cell-based; settings: Gram-negative
Method: as §1

Bacillus subtilis = test: Minimum Bactericidal Concentration of LaLAS; format: cell-based; settings: Gram-positive
Method: as §1

Salmonella typhimurium = test: Minimum Bactericidal Concentration of LaLAS; format: cell-based; settings: Gram-negative
Method: as §1

Staph. aureus ATCC 6538 = test: Minimum Bactericidal Concentration of LaLAS; format: cell-based; settings: Gram-positive
Method: as §1

[8] = test system: Micrococcus luteus ATCC 4698; test: Minimum Bactericidal Concentration of LaLAS; format: cell-based; settings: Gram-positive
Method: as §1

[9] = test system: Staph. epidermidis ATCC 14990; test: Minimum Bactericidal Concentration of LaLAS; format: cell-based; settings: Gram-positive
Method: as §1

dental plaque = test: In vitro growth of dental plaque on extracted human teeth in growth chambers; format: cell-based; settings: plaque-inhibiting solutions for one minute each morning and afternoon, four days; compared with water-treated controls
Text: The efficacy of the antimicrobial composition LaLAS was compared with the known anti-plaque agent chlorhexidine digluconate for the prevention of dental plaque, as follows: • Lanthanum 4-(1'-methylnonyl)benzenesulfonate (LaLAS) was used in this test to reduce the in vitro growth of dental plaque on teeth. This was done using a system of glass growth chambers containing clean, extracted, sound human teeth mounted in stainless steel brackets. After sterilization in an autoclave, the growth chambers were inoculated with homogenized human plaque scrapings and serially treated with Trypticase® soy broth, sucrose, artificial saliva, and solutions of plaque-inhibiting materials for four days: The plaque-inhibiting solutions were introduced for one minute each morning and afternoon. After this treatment, the teeth were withdrawn from the growth chambers, stained with an alcoholic solution of basic fuchsin to disclose any plaque that had formed and, after randomization, graded for percent plaque coverage by three trained judges. Percent plaque reduction was calculated by comparison with water-treated controls. [formula]

[10] = 3 molecular equivalents of Na surfactant to 1 molecular equivalent of LaCl3
[11] = Rare Earth Cation 0.01 mM + 2-C10LAS 0.03 mM
[12] = Rare Earth Cation 0.05 mM + 2-C10LAS 0.15 mM
[13] = Rare Earth Cation 0.1 mM + 2-C10LAS 0.3 mM
[14] = Rare Earth Cation 0.1 mM alone, 2-C10LAS 0 mM
[15] = inorganic lanthanum salt alone, at least 3 log unit reduction in viable cell count

CCCCCCCCCCCCCCCC[n+]1ccccc1 [Cetylpyridinium chloride]
Stain Grade ([1]; 2000 ppm test solution): 2.7

[H]/N=C(\N/C(=N/[H])NCCCCCCNC(=N)NC(=N)Nc1ccc(Cl)cc1)Nc1ccc(Cl)cc1 [Chlorhexidine]
Stain Grade ([1]; 2000 ppm test solution): 3.2

CCCCCCCCC(C)c1ccc(S(=O)(=O)O)cc1 (stereo not shown) [Compound 2-C10LAS, 4-(l'-methylnonyl)benzenesulfonate]
Minimum Bactericidal Concentration (ppm) S. aureus Na salt + LaCl3 (S. aureus; [10]): 32 ppm
MBC (S. aureus; Staphylococcus aureus, 10 min, surfactant as Na salt alone, read-out: Minimum Bactericidal Concentration (ppm) S. aureus as Na salt): 2000 mg/L
Minimum Bactericidal Concentration (ppm) E. coli Na salt + LaCl3 (E. coli [2]; [10]): 32 ppm
MBC (E. coli [2]; Escherichia coli, 10 min, surfactant as Na salt alone, read-out: Minimum Bactericidal Concentration (ppm) E. coli as Na salt): > 2000 mg/L
Log Survivors/ml (E. coli [3]; Rare Earth Cation 0 mM, 2-C10LAS 0.3 mM alone): 6

[Cl][Dy]([Cl])[Cl] [DyCl3]
Log Survivors/ml (E. coli [3]; [11]): 0
Log Survivors/ml (E. coli [3]; [12]): 0
Log Survivors/ml (E. coli [3]; [13]): 0
Log Survivors/ml (E. coli [3]; [14]): 3

[Cl][La]([Cl])[Cl] [LaCl3]
Log Survivors/ml (E. coli [3]; [11]): 0
Log Survivors/ml (E. coli [3]; [12]): 0
Log Survivors/ml (E. coli [3]; [13]): 0
Log Survivors/ml (E. coli [3]; [14]): 5

O.O.O.O.O.O.[Cl-].[Cl-].[Cl-].[La+3] [LaCl3·6H2O, lanthanum chloride hexahydrate]
Minimum Bactericidal Concentration (S. aureus; [15]): >3500 ppm
Minimum Bactericidal Concentration (E. coli [2]; [15]): >3500 ppm

[Cl][Nd]([Cl])[Cl] [NdCl3]
Log Survivors/ml (E. coli [3]; [11]): 1
Log Survivors/ml (E. coli [3]; [12]): 0
Log Survivors/ml (E. coli [3]; [13]): 0
Log Survivors/ml (E. coli [3]; [14]): 3

[Cl][Pr]([Cl])[Cl] [PrCl3]
Log Survivors/ml (E. coli [3]; [11]): 0
Log Survivors/ml (E. coli [3]; [12]): 0
Log Survivors/ml (E. coli [3]; [13]): 0
Log Survivors/ml (E. coli [3]; [14]): 3

[Cl][Yb]([Cl])[Cl] [YbCl3]
Log Survivors/ml (E. coli [3]; [11]): 0
Log Survivors/ml (E. coli [3]; [12]): 0
Log Survivors/ml (E. coli [3]; [13]): 0
Log Survivors/ml (E. coli [3]; [14]): 2

[Ca] [calcium]
effectiveness as component of the antimicrobial compositions (E. coli [3]): ineffective

O=[N+]([O-])[O-].O=[N+]([O-])[O-].O=[N+]([O-])[O-].[Ce+3] [cerium nitrate]
concentration that inhibits Staphylococcus (Staphylococcus): 1000 ppm
concentration that inhibits molds (molds): 1000 ppm

[H]/N=C(\N/C(=N/[H])NCCCCCCNC(=N)NC(=N)Nc1ccc(Cl)cc1)Nc1ccc(Cl)cc1 [chlorhexidine digluconate]
promotion of stains [1]: undesirably promotes stains

[Fe] [iron]
effectiveness as component of the antimicrobial compositions (E. coli [3]): ineffective

[Mg] [magnesium]
effectiveness as component of the antimicrobial compositions (E. coli [3]): ineffective

CCCCCCCCCCCCc1ccc(S(=O)(=O)O)cc1 [n-C12LAS]
water solubility [4]: rather water-insoluble
antimicrobial activity [5]: rather poor

aluminum
effectiveness as component of the antimicrobial compositions (E. coli [3]): ineffective

lanthanum 4-(l'-methylnonyl)benzenesulfonate [LaLAS]
Minimum Bactericidal Conc. of LaLAS (E. coli ATCC 11775): 32 ppm
Minimum Bactericidal Conc. of LaLAS [6]: 16 ppm
Minimum Bactericidal Conc. of LaLAS [7]: 125 ppm
Minimum Bactericidal Conc. of LaLAS (Strep. faecalis): 32 ppm
Minimum Bactericidal Conc. of LaLAS (Proteus vulgaris): 32 ppm
Minimum Bactericidal Conc. of LaLAS (Bacillus subtilis): 500 ppm
Minimum Bactericidal Conc. of LaLAS (Salmonella typhimurium): 125 ppm
Minimum Bactericidal Conc. of LaLAS (Staph. aureus ATCC 6538): 32 ppm
Minimum Bactericidal Conc. of LaLAS [8]: 125 ppm
Minimum Bactericidal Conc. of LaLAS [9]: 32 ppm
anti-plaque efficacy (dental plaque): equivalent to chlorhexidine digluconate
Stain Grade ([1]; 2000 ppm in 20% EtOH): 0
Stain Grade ([1]; 2000 ppm test solution): 0.1
promotion of stains [1]: does not
